According to PubChem BioAssay AID248 (DTP/NCI, 2004):
Several values for one entry are separate records, joined by “and”; a condition that tells them apart may be missing. Equal values may be shown once. Inconclusive results and toxic doses are left out.

System: L1210 leukemia ip in BDF1 mice, survival T/C
Test: NCI In Vivo Anticancer Drug Screen. Data for tumor model L1210 Leukemia (intraperitoneal) in B6D2F1 (BDF1) mice
Conditions: endpoint: mean survival time, higher = longer survival
How it was run: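 Mice bearing the transplanted tumor received compound or vehicle. Survival of the treated group was divided by that of the vehicle-treated control group to give the ratio.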

[1] = dose: 100.0 mg/kg/injection, schedule: Q04DX003 (ip), vehicle: Klucel (hydroxypropylcellulose) (HPC)
[2] = dose: 200.0 mg/kg/injection, schedule: Q04DX003 (ip), vehicle: Klucel (hydroxypropylcellulose) (HPC)
[3] = dose: 400.0 mg/kg/injection, schedule: Q04DX003 (ip), vehicle: Klucel (hydroxypropylcellulose) (HPC)
[4] = dose: 100.0 mg/kg/injection, schedule: Q01DX001 (ip), vehicle: carboxymethylcellulose (CMC)
[5] = dose: 200.0 mg/kg/injection, schedule: Q01DX001 (ip), vehicle: carboxymethylcellulose (CMC)
[6] = dose: 400.0 mg/kg/injection, schedule: Q01DX001 (ip), vehicle: carboxymethylcellulose (CMC)
[7] = dose: 100.0 mg/kg/injection, schedule: Q04DX002 (ip), vehicle: Klucel (hydroxypropylcellulose) (HPC)
[8] = dose: 200.0 mg/kg/injection, schedule: Q04DX002 (ip), vehicle: Klucel (hydroxypropylcellulose) (HPC)
[9] = dose: 400.0 mg/kg/injection, schedule: Q04DX002 (ip), vehicle: Klucel (hydroxypropylcellulose) (HPC)
[10] = dose: 100.0 mg/kg/injection, schedule: Q01DX009 (ip), vehicle: Klucel (hydroxypropylcellulose) (HPC)
[11] = dose: 100.0 mg/kg/injection, schedule: Q01DX001 (ip), vehicle: saline
[12] = dose: 200.0 mg/kg/injection, schedule: Q01DX001 (ip), vehicle: saline
[13] = dose: 400.0 mg/kg/injection, schedule: Q01DX001 (ip), vehicle: saline

SMILES: CCc1ccc(NC(=O)Nc2ccc(Cl)cc2)cc1
- T/C (dose: 100.0 mg/kg/injection, schedule: Q01DX009 (ip), vehicle: gum acacia): 92 % of control
- T/C (dose: 100.0 mg/kg/injection, schedule: Q04DX003 (ip), vehicle: gum acacia): 92 % of control
- T/C (dose: 200.0 mg/kg/injection, schedule: Q01DX009 (ip), vehicle: gum acacia): 89 % of control
- T/C (dose: 200.0 mg/kg/injection, schedule: Q04DX003 (ip), vehicle: gum acacia): 92 % of control
- T/C (dose: 400.0 mg/kg/injection, schedule: Q01DX009 (ip), vehicle: gum acacia): 94 % of control
- T/C (dose: 400.0 mg/kg/injection, schedule: Q04DX003 (ip), vehicle: gum acacia): 93 % of control

SMILES: N#CC(C#N)=NNc1cccc(Cl)c1Cl
- T/C (dose: 5.0 mg/kg/injection, schedule: Q01DX009 (ip), vehicle: saline with Tween-80): 90 % of control
- T/C (dose: 10.0 mg/kg/injection, schedule: Q01DX009 (ip), vehicle: saline with Tween-80): 88 % of control

SMILES: CC(=O)c1c(C)cc2cc(C)cc(O)c2c1O
- T/C [1]: 97 % of control
- T/C [2]: 101 % of control
- T/C [3]: 101 % of control

SMILES: CCCCC(CC)C(=O)[O][Ge]([CH2]CCC)([CH2]CCC)[O]C(=O)C(CC)CCCC (centres undefined)
- T/C (dose: 100.0 mg/kg/injection, schedule: Q01DX001 (ip), vehicle: saline with Tween-80): 101 % of control
- T/C (dose: 200.0 mg/kg/injection, schedule: Q01DX001 (ip), vehicle: saline with Tween-80): 100 % of control
- T/C (dose: 400.0 mg/kg/injection, schedule: Q01DX001 (ip), vehicle: saline with Tween-80): 100 % of control

SMILES: COc1ccc(OC)c(NC(=O)Oc2ccccc2C(N)=O)c1
- T/C (dose: 25.0 mg/kg/injection, schedule: Q04DX003 (ip), vehicle: Klucel (hydroxypropylcellulose) (HPC)): 89 % of control
- T/C (dose: 50.0 mg/kg/injection, schedule: Q04DX003 (ip), vehicle: Klucel (hydroxypropylcellulose) (HPC)): 95 % of control
- T/C [1]: 94 % of control and 92 % of control

SMILES: OC12C3CCCC1CCCC2CCC3 (centres undefined)
- T/C (dose: 100.0 mg/kg/injection, schedule: Q01DX009 (ip), vehicle: other): 101 % of control
- T/C (dose: 100.0 mg/kg/injection, schedule: Q01DX009 (ip), vehicle: saline sonified): 103 % of control
- T/C (dose: 100.0 mg/kg/injection, schedule: Q01DX009 (ip), vehicle: saline with Tween-80): 110 % of control and 90 % of control
- T/C [1]: 95 % of control and 106 % of control and 96 % of control
- T/C (dose: 100.0 mg/kg/injection, schedule: Q04DX003 (ip), vehicle: saline): 102 % of control
- T/C (dose: 200.0 mg/kg/injection, schedule: Q01DX009 (ip), vehicle: other): 94 % of control
- T/C (dose: 200.0 mg/kg/injection, schedule: Q01DX009 (ip), vehicle: saline sonified): 103 % of control
- T/C (dose: 200.0 mg/kg/injection, schedule: Q01DX009 (ip), vehicle: saline with Tween-80): 106 % of control and 89 % of control
- T/C [2]: 108 % of control and 100 % of control and 96 % of control
- T/C (dose: 200.0 mg/kg/injection, schedule: Q04DX003 (ip), vehicle: saline): 102 % of control
- T/C (dose: 400.0 mg/kg/injection, schedule: Q01DX009 (ip), vehicle: other): 92 % of control
- T/C (dose: 400.0 mg/kg/injection, schedule: Q01DX009 (ip), vehicle: saline sonified): 92 % of control
- T/C (dose: 400.0 mg/kg/injection, schedule: Q01DX009 (ip), vehicle: saline with Tween-80): 95 % of control and 92 % of control
- T/C [3]: 95 % of control and 104 % of control and 114 % of control
- T/C (dose: 400.0 mg/kg/injection, schedule: Q04DX003 (ip), vehicle: saline): 104 % of control

SMILES: CC(C)COC(=O)c1ccc(NC(=O)Nc2ccc(F)cc2)cc1
- T/C [4]: 99 % of control
- T/C (dose: 100.0 mg/kg/injection, schedule: Q01DX009 (ip), vehicle: carboxymethylcellulose (CMC)): 92 % of control and 97 % of control
- T/C (dose: 100.0 mg/kg/injection, schedule: Q04DX002 (ip), vehicle: carboxymethylcellulose (CMC)): 93 % of control and 103 % of control
- T/C (dose: 100.0 mg/kg/injection, schedule: Q04DX003 (ip), vehicle: carboxymethylcellulose (CMC)): 96 % of control
- T/C [5]: 87 % of control
- T/C (dose: 200.0 mg/kg/injection, schedule: Q01DX009 (ip), vehicle: carboxymethylcellulose (CMC)): 100 % of control and 90 % of control
- T/C (dose: 200.0 mg/kg/injection, schedule: Q04DX002 (ip), vehicle: carboxymethylcellulose (CMC)): 92 % of control and 91 % of control
- T/C (dose: 200.0 mg/kg/injection, schedule: Q04DX003 (ip), vehicle: carboxymethylcellulose (CMC)): 96 % of control
- T/C [6]: 96 % of control
- T/C (dose: 400.0 mg/kg/injection, schedule: Q01DX009 (ip), vehicle: carboxymethylcellulose (CMC)): 100 % of control
- T/C (dose: 400.0 mg/kg/injection, schedule: Q04DX002 (ip), vehicle: carboxymethylcellulose (CMC)): 100 % of control and 102 % of control
- T/C (dose: 400.0 mg/kg/injection, schedule: Q04DX003 (ip), vehicle: carboxymethylcellulose (CMC)): 95 % of control

SMILES: Cc1ncc(CO)c(/C=N\OCc2cc(Cl)sc2Cl)c1O
- T/C [1]: 93 % of control
- T/C [2]: 93 % of control
- T/C [3]: 104 % of control

SMILES: Cc1ccc(NC(=O)NCCCO)cc1
- T/C (dose: 50.0 mg/kg/injection, schedule: Q01DX001 (ip), vehicle: carboxymethylcellulose (CMC)): 101 % of control
- T/C [4]: 101 % of control
- T/C [5]: 106 % of control
- T/C [6]: 104 % of control

SMILES: CCCCNC(=O)N(CC)c1cccc(C)c1
- T/C [7]: 105 % of control
- T/C [8]: 118 % of control
- T/C [9]: 102 % of control

SMILES: NC(=O)N/N=C/C1CCC=CO1 (centres undefined)
- T/C [10]: 94 % of control
- T/C (dose: 200.0 mg/kg/injection, schedule: Q01DX009 (ip), vehicle: Klucel (hydroxypropylcellulose) (HPC)): 102 % of control
- T/C (dose: 400.0 mg/kg/injection, schedule: Q01DX009 (ip), vehicle: Klucel (hydroxypropylcellulose) (HPC)): 103 % of control

SMILES: O=S1(=O)CC23C=CC=CC2(CCCC3)C1Cl (centres undefined)
- T/C (dose: 25.0 mg/kg/injection, schedule: Q01DX009 (ip), vehicle: Klucel (hydroxypropylcellulose) (HPC)): 94 % of control
- T/C (dose: 50.0 mg/kg/injection, schedule: Q01DX009 (ip), vehicle: Klucel (hydroxypropylcellulose) (HPC)): 102 % of control
- T/C [10]: 94 % of control

SMILES: O=C1OC2CCCCC1CC2 (centres undefined)
- T/C [11]: 108 % of control
- T/C [12]: 110 % of control
- T/C [13]: 87 % of control

SMILES: NC(c1ccccc1)C(C(=O)O)C(=O)O (centres undefined)
- T/C (dose: 75.0 mg/kg/injection, schedule: Q04DX003 (ip), vehicle: saline): 95 % of control
- T/C (dose: 150.0 mg/kg/injection, schedule: Q04DX003 (ip), vehicle: saline): 94 % of control
- T/C (dose: 300.0 mg/kg/injection, schedule: Q04DX003 (ip), vehicle: saline): 95 % of control

SMILES: O=[N+]([O-])c1ccc(I)c(F)c1
- T/C [1]: 100 % of control
- T/C [2]: 100 % of control
- T/C [3]: 104 % of control

SMILES: Cc1cc(N(CCCl)CCCl)ccc1C=Nc1cc(Cl)c(O)c(Cl)c1
- T/C [4]: 96 % of control
- T/C [5]: 96 % of control
- T/C [6]: 105 % of control

SMILES: CCCCCCCCC1OC1CCCCCCCC(N)=O (centres undefined)
- T/C (dose: 100.0 mg/kg/injection, schedule: Q04DX002 (ip), vehicle: saline with Tween-80): 92 % of control
- T/C (dose: 200.0 mg/kg/injection, schedule: Q04DX002 (ip), vehicle: saline with Tween-80): 88 % of control
- T/C (dose: 400.0 mg/kg/injection, schedule: Q04DX002 (ip), vehicle: saline with Tween-80): 100 % of control

SMILES: COc1ccc(C(N)=O)c(C)c1OC
- T/C (dose: 50.0 mg/kg/injection, schedule: Q01DX001 (ip), vehicle: saline): 98 % of control
- T/C [11]: 95 % of control
- T/C [12]: 95 % of control
- T/C [13]: 95 % of control

SMILES: CCOc1ccccc1NC(=O)Nc1cccc(C(F)(F)F)c1
- T/C [7]: 99 % of control
- T/C [8]: 92 % of control
- T/C [9]: 89 % of control

SMILES: CCCCCCCCCCCCCOc1ccc2ccccc2c1
- T/C (dose: 100.0 mg/kg/injection, schedule: Q01DX001 (ip), vehicle: Klucel (hydroxypropylcellulose) (HPC)): 326 % of control
- T/C (dose: 200.0 mg/kg/injection, schedule: Q01DX001 (ip), vehicle: Klucel (hydroxypropylcellulose) (HPC)): 165 % of control
- T/C (dose: 400.0 mg/kg/injection, schedule: Q01DX001 (ip), vehicle: Klucel (hydroxypropylcellulose) (HPC)): 92 % of control

SMILES: CSc1ncnc2c1ncn2C1OC(CCC(N)=O)C(O)C1O (centres undefined)
- T/C (dose: 50.0 mg/kg/injection, schedule: Q04DX002 (ip), vehicle: Klucel (hydroxypropylcellulose) (HPC)): 98 % of control
- T/C [7]: 101 % of control and 103 % of control
- T/C [8]: 95 % of control
- T/C [9]: 95 % of control
